Source: US9617256B2 (priority 2007, dated 2017)
In brackets after ≈: the same amount, converted by molar mass.

What was measured:
[1] = tested on: AECO063 (ATCC25922 bearing an acrAB mutation); assay: microbe, parasite or virus in culture; type: cell-based, E. coli; details: for MIC: Escherichia coli, ATCC25922, read-out: MIC AECO063
Method in brief: (§1)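 CLSI-guided microdilution: bacteria passaged overnight at 35° C. on Mueller-Hinton agar, tested in cation-adjusted broth at a final 3×10^5–7×10^5 CFU/mL across 2-fold drug dilutions, read after 18-24 h at 35° C.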

[2] = tested on: AABA1060 (clinical isolate of Acinetobacter baumannii); assay: MIC broth microdilution, AABA1060; type: cell-based; details: for MIC: Acinetobacter baumannii, read-out: MIC AABA1060
Method in brief: as §1

APAE001 (ATCC27853) = assay: MIC broth microdilution, APAE001; type: cell-based, P. aeruginosa; details: for MIC: Pseudomonas aeruginosa, ATCC27853, read-out: MIC APAE001, APAE001 is ATCC27853
Method in brief: as §1

[3] = tested on: APAE006 in the presence of 8 micrograms per milliliter of polymyxin B nonapeptide; type: cell-based, P. aeruginosa; details: in the presence of 8 micrograms per milliliter of polymyxin B nonapeptide
Method in brief: (§2)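 MICs come from broth microdilution in cation-adjusted Mueller-Hinton broth, final inoculum 3×10^5–7×10^5 CFU/mL, 18-24 hours at 35° C. Levofloxacin and QC strains served as assay controls.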

AECO001 (ATCC25922) = assay: MIC broth microdilution, AECO001; type: cell-based, E. coli; details: for MIC: Escherichia coli, ATCC25922, read-out: MIC AECO001
Method in brief: as §1

AECO001 HSA AGP = assay: MIC broth microdilution, AECO001 HSA AGP; type: cell-based, E. coli; details: for MIC: Escherichia coli
Description: Bacterial isolates were cultivated from −70° C. frozen stocks by overnight passages at 35° C. in ambient air on Mueller-Hinton agar (Beckton Dickinson, Franklin Lakes, N.J.). Clinical isolates tested were obtained from various geographically diverse hospitals in the US and abroad (Focus Diagnostics, Herndon, Va. and JMI, North Liberty, Iowa). Quality control strains were from the American Type Culture Collection (ATCC; Rockville, Md.). Additional primary panel strains were generated using standard molecular biology techniques.
Minimum Inhibitory Concentrations (MICs) were determined by the broth microdilution method in accordance with the Clinical and Laboratory Standards Institute (CLSI) guidelines. In brief, organism suspensions were adjusted to a 0.5 McFarland standard to yield a final inoculum between 3×10^5 and 7×10^5 colony-forming units (CFU)/mL. Drug dilutions and inocula were made in sterile, cation adjusted Mueller-Hinton Broth (Beckton Dickinson). An inoculum volume of 100 μL was added to wells containing 100 μL of broth with 2-fold serial dilutions of drug. All inoculated microdilution trays were incubated in ambient air at 35° C. for 18-24 hours. […] Performance of the assay was monitored by the use of laboratory quality-control strains and levofloxacin, a compound with a defined MIC spectrum, in accordance with CLSI guidelines.
*AECO001 is ATCC25922, AECO063 is ATCC25922 bearing an acrAB mutation, APAE001 is ATCC27853, APAE006 is a strain of P. aeruginosa in which all efflux pumps are inactivated, APAE006+PMBN indicates MICs with the indicated strain in the presence of 8 micrograms per milliliter of polymyxin B nonapeptide, AABA1060 is a clinical isolate of Acinetobacter baumannii, ASAU001 is a laboratory strain of S. aureus (ATCC29213).

[4] = tested on: ASAU001 (laboratory strain of S. aureus, ATCC29213); assay: MIC broth microdilution, ASAU001; type: cell-based; details: for MIC: Staphylococcus aureus, ATCC29213, read-out: MIC ASAU001
Method in brief: as §1

[5] = tested on: APAE006 (strain of P. aeruginosa in which all efflux pumps are inactivated); assay: microbe, parasite or virus in culture; type: cell-based; details: for MIC: Pseudomonas aeruginosa, read-out: MIC APAE006, P. aeruginosa, all efflux pumps inactivated
Method in brief: as §2

## C[C@@H](NC(=O)CNC1CC1)[C@H](NC(=O)c1ccc(C#Cc2ccc(CO)cc2)cc1)C(=O)NO [Example 137-3]
[1]
  MIC: < 2 µg/mL
[2]
  MIC: 16 to 64 µg/mL (≈ 34.4 to 138 µM)
APAE001 (ATCC27853)
  MIC: 2 to 16 µg/mL (≈ 4.31 to 34.4 µM)
[3]
  MIC APAE006 + PMBN: A (MIC's of 2.0 μg/mL or less = A)
AECO001 (ATCC25922)
  MIC: < 2 µg/mL
AECO001 HSA AGP
  MIC: 2 to 16 µg/mL (≈ 4.31 to 34.4 µM)
[4]
  MIC: 16 to 64 µg/mL (≈ 34.4 to 138 µM)
[5]
  MIC: < 2 µg/mL

## C[C@H](O)[C@H](NC(=O)c1ccc(C#C/C=C/c2ccc(CN3CCOCC3)cc2)cc1)C(=O)NO [Example 96-2]
[1]
  MIC: < 2 µg/mL
[2]
  MIC: 2 to 16 µg/mL (≈ 4.31 to 34.5 µM)
APAE001 (ATCC27853)
  MIC: 2 to 16 µg/mL (≈ 4.31 to 34.5 µM)
[3]
  MIC APAE006 + PMBN: A (MIC's of 2.0 μg/mL or less = A)
AECO001 (ATCC25922)
  MIC: < 2 µg/mL
AECO001 HSA AGP
  MIC: 2 to 16 µg/mL (≈ 4.31 to 34.5 µM)
[4]
  MIC: 16 to 64 µg/mL (≈ 34.5 to 138 µM)
[5]
  MIC: < 2 µg/mL

## C[C@@H](N)[C@H](NC(=O)c1ccc(C#CC#Cc2ccc(F)cc2)cc1)C(=O)NO [Example 82-12]
[1]
  MIC: < 2 µg/mL
[2]
  MIC: 2 to 16 µg/mL (≈ 5.27 to 42.2 µM)
APAE001 (ATCC27853)
  MIC: 2 to 16 µg/mL (≈ 5.27 to 42.2 µM)
[3]
  MIC APAE006 + PMBN: A (MIC's of 2.0 μg/mL or less = A)
AECO001 (ATCC25922)
  MIC: < 2 µg/mL
AECO001 HSA AGP
  MIC: 2 to 16 µg/mL (≈ 5.27 to 42.2 µM)
[4]
  MIC: 16 to 64 µg/mL (≈ 42.2 to 169 µM)
[5]
  MIC: < 2 µg/mL

## O=C(N[C@H](C(=O)NO)C1CCNCC1)c1ccc(C#Cc2ccc(CN3CCOCC3)cc2)cc1 [Example 65-6, N—((S)-hydroxycarbamoyl-piperidin-4-yl-methyl)-4-(4-morpholin-4-ylmethyl-phenylethynyl)-benzamide]
[1]
  MIC: 2 to 16 µg/mL (≈ 4.2 to 33.6 µM)
[2]
  MIC: 16 to 64 µg/mL (≈ 33.6 to 134 µM)
APAE001 (ATCC27853)
  MIC: 16 to 64 µg/mL (≈ 33.6 to 134 µM)
[3]
  MIC APAE006 + PMBN: A (MIC's of 2.0 μg/mL or less = A)
AECO001 (ATCC25922)
  MIC: 16 to 64 µg/mL (≈ 33.6 to 134 µM)
AECO001 HSA AGP
  MIC: > 64 µg/mL
[4]
  MIC: > 64 µg/mL
[5]
  MIC: 2 to 16 µg/mL (≈ 4.2 to 33.6 µM)

## C[C@@H](N)[C@H](NC(=O)c1ccc(/C=C/C#Cc2ccc(CNC3CC3)cc2)cc1)C(=O)NO [Example 113-2]
[1]
  MIC: < 2 µg/mL
[2]
  MIC: 2 to 16 µg/mL (≈ 4.62 to 37 µM)
APAE001 (ATCC27853)
  MIC: < 2 µg/mL
[3]
  MIC APAE006 + PMBN: A (MIC's of 2.0 μg/mL or less = A)
AECO001 (ATCC25922)
  MIC: < 2 µg/mL
AECO001 HSA AGP
  MIC: 2 to 16 µg/mL (≈ 4.62 to 37 µM)
[4]
  MIC: > 64 µg/mL
[5]
  MIC: < 2 µg/mL

## C[C@@H](N)[C@H](NC(=O)c1ccc(/C=C/C#Cc2ccc(CO)cc2)cc1)C(=O)NO [Example 112-1]
[1]
  MIC: < 2 µg/mL
[2]
  MIC: 2 to 16 µg/mL (≈ 5.08 to 40.7 µM)
APAE001 (ATCC27853)
  MIC: < 2 µg/mL
[3]
  MIC APAE006 + PMBN: A (MIC's of 2.0 μg/mL or less = A)
AECO001 (ATCC25922)
  MIC: < 2 µg/mL
AECO001 HSA AGP
  MIC: 16 to 64 µg/mL (≈ 40.7 to 163 µM)
[4]
  MIC: > 64 µg/mL
[5]
  MIC: < 2 µg/mL

## C[C@@H](N)[C@H](NC(=O)c1ccc(/C=C/C#Cc2ccccc2F)cc1)C(=O)NO [Example 114-3]
[1]
  MIC: < 2 µg/mL
[2]
  MIC: < 2 µg/mL
APAE001 (ATCC27853)
  MIC: < 2 µg/mL
[3]
  MIC APAE006 + PMBN: A (MIC's of 2.0 μg/mL or less = A)
AECO001 (ATCC25922)
  MIC: < 2 µg/mL
AECO001 HSA AGP
  MIC: 2 to 16 µg/mL (≈ 5.24 to 41.9 µM)
[4]
  MIC: 16 to 64 µg/mL (≈ 41.9 to 168 µM)
[5]
  MIC: < 2 µg/mL

## CC(C)(N)C(NC(=O)c1ccc(C#Cc2ccc(CO)cc2)cc1)C(=O)NO (centres unmarked) [Example 137-5]
[1]
  MIC: < 2 µg/mL
[2]
  MIC: 2 to 16 µg/mL (≈ 5.24 to 41.9 µM)
APAE001 (ATCC27853)
  MIC: < 2 µg/mL
[3]
  MIC APAE006 + PMBN: A (MIC's of 2.0 μg/mL or less = A)
AECO001 (ATCC25922)
  MIC: < 2 µg/mL
AECO001 HSA AGP
  MIC: 2 to 16 µg/mL (≈ 5.24 to 41.9 µM)
[4]
  MIC: 16 to 64 µg/mL (≈ 41.9 to 168 µM)
[5]
  MIC: < 2 µg/mL

## O=CN(O)CC(CO)NC(=O)c1ccc(C#Cc2ccc(CN3CCOCC3)cc2)cc1 (centres unmarked) [Example 128-1, N-[2-(Formyl-hydroxy-amino)-1-hydroxymethyl-ethyl]-4-(4-morpholin-4-yl-methyl-phenylethynyl)-benzamide]
[1]; ATCC25922 bearing an acrAB mutation
  MIC AECO063: C (MIC's of greater than 16.0 μg/mL to 64.0 μg/mL = C)
[2]; clinical isolate of Acinetobacter baumannii
  MIC AABA1060: C (MIC's of greater than 16.0 μg/mL to 64.0 μg/mL = C)
APAE001 (ATCC27853); APAE001 is ATCC27853
  MIC APAE001: C (MIC's of greater than 16.0 μg/mL to 64.0 μg/mL = C)
[3]
  MIC APAE006 + PMBN: C (MIC's of greater than 16.0 μg/mL to 64.0 μg/mL = C)
AECO001 (ATCC25922); AECO001 is ATCC25922
  MIC AECO001: C (MIC's of greater than 16.0 μg/mL to 64.0 μg/mL = C)
AECO001 HSA AGP
  MIC AECO001 HSA AGP: C (MIC's of greater than 16.0 μg/mL to 64.0 μg/mL = C)
[4]; S. aureus ATCC29213
  MIC ASAU001: C (MIC's of greater than 16.0 μg/mL to 64.0 μg/mL = C)
[5]; P. aeruginosa, all efflux pumps inactivated
  MIC APAE006: C (MIC's of greater than 16.0 μg/mL to 64.0 μg/mL = C)

## C[C@@H](N)[C@H](NC(=O)c1ccc(C#CC#Cc2cccnc2)cc1)C(=O)NO [Example 88-3]
[1]
  MIC: < 2 µg/mL
[2]
  MIC: 2 to 16 µg/mL (≈ 5.52 to 44.2 µM)
APAE001 (ATCC27853)
  MIC: < 2 µg/mL
[3]
  MIC APAE006 + PMBN: A (MIC's of 2.0 μg/mL or less = A)
AECO001 (ATCC25922)
  MIC: < 2 µg/mL
AECO001 HSA AGP
  MIC: 2 to 16 µg/mL (≈ 5.52 to 44.2 µM)
[4]
  MIC: > 64 µg/mL
[5]
  MIC: < 2 µg/mL
